Earlier results, collected in patent US20030144252A1, “Combination product comprising a non-steroidal antiandrogen and an egfr tyrosine kinase inhibitor” (priority 2000, published 2003).

Assays:
[1] = tested on: LNCaP prostate cancer cell line
androgen receptor = details: LNCaP prostate cancer cell line

| block of HER2/neu protein induced activation of the androgen receptor (androgen receptor) | SMILES | block of EGF induced cell growth [1] |
| --- | --- | --- |
|  | CC(O)(CS(=O)(=O)c1ccc(F)cc1)C(=O)Nc1ccc(C#N)c(C(F)(F)F)c1 (centres unmarked) [bicalutamide, 4′-cyano-3-(4-fluorophenylsulphonyl)-2-hydroxy-2-methyl-3′-(trifluoromethyl)propionanilide] | could partially block |
| could partially block | CC(C)(O)C(=O)Nc1ccc([N+](=O)[O-])c(C(F)(F)F)c1 [hydroxyflutamide] |  |
